Data taken from patent US11129867B2, “Method of treating cancer cells” (priority 2017, dated 2021).
Where a SMILES comes first, the peptide text is derived from it. The star is where a group is joined. X1 = CN(C)c1ccc2c(-c3ccc(C(=O)*)cc3C(=O)[O-])c3ccc(=[N+](C)C)cc-3oc2c1

Assays:
[1] = system: MDA-MB-231; assay: WST-8 cell viability assay, MDA-MB-231; type: cell-based; details: MDA-MB-231 (breast cancer), different concentrations, 48 hours, FIG. 3
Experimental: Human oral squamous cell carcinoma (OSCC) cell lines, Ca922, OSC20, OECM-1, OC3, CGHNC9, HSC3, plus A549, MDA-MB-231, MCF7, Huh7, HeLa-Kyoto, Detroit 562, H520, H2170, and 293T cells were used in this study. Ca922, CGHNC9, MDA-MB-231, MCF7, Huh7, HeLa-Kyoto, Detroit 562, and 293T cells were all cultured in high-glucose Dulbecco's Modified Eagle Medium (DMEM). OSC20 and HSC3 cells were cultured in Dulbecco's Modified of Eagle's Medium/Ham's F-12 50/50 Mix (1:1). OECM-1, A549, H520, and H2170 cells were grown in RPMI-1640 medium. All culture media were supplemented with 10% fetal bovine serum (FBS) and 1% penicillin-streptomycin. OC3 cells were cultured in 1:1 DMEM/KSFM (keratinocyte serum-free medium) with supplied supplement of Bovine pituitary extract (BPE) and epidermal growth factor (EGF) followed by instruction. All the cells in this study were maintained at 37° C. in humidified atmosphere containing 5% CO2.
WST-8 [2-(2-methoxy-4-nitrophenyl)-3-(4-nitrophenyl)-5-(2,4-disulfophenyl)-2H-tetrazolium, monosodium salt] cell viability assay
Cells were seeded into 96 well plate and incubated at 37° C. overnight. […] The amount of formazan produced is proportional to the number of live cells and is expressed as cellular viability. […] Cell viability was measured at the absorbance of 450/655 nm wavelength by ELISA reader.

[2] = system: Ca922 cells; assay: Time-lapse live cell imaging, Ca922; type: cell-based
Experimental: Ca922 cells were grown on 35 mm culture dishes overnight then treated with 1% DMSO, 12.5 μM TMR, GBP, TMR-GBP respectively and monitored by time-lapse live cell microscope. Cells were exposed to indicate wavelength once every 4 hours for 100 ms and continuously for 20 hours. At least 300 cells in five different fields were counted for each experiment using microcopy that captured images under 10× magnification. Mortality rate was evaluated by counting the percentage of dead cells in the whole population. Standard deviations of three independent experiments were indicated as bars.
(§1) Time-Lapse Live Cell Imaging
(§2) In order to monitor cell morphology and the stability of TMR-GBP, cells were incubated in 35 mm dish or 4 well dish at 37° C. overnight. Replaced the culture medium with CO2-independent medium with supplement of 10% fetal bovine serum (FBS) and 1% penicillin-streptomycin, cells were treated with reagent (TMR, GBP, TMR-GBP) for the time according to the experiment and subjected to time-lapse live cell imaging. Cells were maintained on the microscope stage incubator at 37° C. Multiple-positional time-lapse imaging was performed using an automated Leica DMI6000 inverted microscope equipped with an HCX PL FL 20λ/NA0.4 objective and Andor Luca R EMCCD camera. Images of cells were taken at different interval time and analyzed by MetaMorph software.

[3] = system: OECM-1; assay: Time-lapse live cell imaging, OECM-1; type: cell-based, human; details: OECM-1, unbound TMR-GBP removed, imaged at 15 minutes interval for 16 hours, FIG. 4
Experimental: as §1, §2

[4] = system: A549; assay: Time-lapse live cell imaging, A549; type: cell-based; details: A549, unbound TMR-GBP removed, imaged at 15 minutes interval for 16 hours, FIG. 4
Experimental: as §1, §2

[5] = system: intracellular ROS in Ca922 cells; assay: DCFDA cellular ROS detection assay; type: cell-based, human
Experimental: Ca922 cells were seeded in dark, clear bottom 96-well microplate with 25,000 cells per well. Cells were then labeled with 25 μM DCFDA for 45 minutes and 25 μM TMR-GBP for 6 hours. 1% H2O2 (1 hour) and 55 mM TBHP (4 hours) treatments were positive control, mimic ROS activity to oxidize DCFDA to fluorescent DCF. Cells were then analyzed on a fluorescent plate reader. Standard deviations of three independent experiments were indicated as bars.
DCFDA Cellular ROS Detection Assay
Seeded cells at 2.5×10^4 cells/well on a dark, clear bottom 96-well microplate and incubated in complete media with 10% FBS without phenol red. Prepared 1× Buffer by diluting 10× buffer in ddH2O and a working DCFDA solution (25 μM) by adding the appropriate volume of 20 mM DCFDA to 1× Buffer. Washed cells once in 1× Buffer and stained cells with 25 μM DCFDA for 45 minutes at 37° C. Then, washed cells once in 1× Buffer or 1×PBS. TMR-GBP, H2O2 and TBHP could be diluted in complete media with 10% FBS without phenol red. Added 100 μL/well of TMR-GBP, H2O2 (as positive control), TBHP (as positive control) and incubated for desired time period. Cells should not be washed after treatment with the TBHP or other compounds of interest. It should contain non-stained cells to determine background fluorescence. Read signal at Ex/Em: 485/535 nm by fluorescent plate reader

CN(C)c1ccc2c(-c3ccc(C(=O)N[C@@H](CC(N)=O)C(=O)N[C@@H](Cc4ccc(O)cc4)C(=O)N[C@@H](CCCNC(=N)N)C(=O)N[C@@H](Cc4c[nH]c5ccccc45)C(=O)N[C@@H](CCCNC(=N)N)C(=O)N[C@@H](CS)C(=O)N[C@@H](CCCCN)C(=O)N[C@@H](CC(N)=O)C(=O)N[C@@H](CCC(N)=O)C(=O)N[C@@H](CC(N)=O)C(=O)O)cc3C(=O)[O-])c3ccc(=[N+](C)C)cc-3oc2c1 [TMR-GBP] (X1-NYRWRCKNQN-OH; N-terminus and C-terminus assumed)
cell viability [1]: not markedly affected | cytotoxicity under light stress (mortality) ([2]; Ca922, 12.5 μM, exposed to 532 nm, 488 nm, 405 nm and brightfield, after 20 hours, FIG. 2): more sensitive to 532 nm light stress and displayed cytotoxic effects | cell death by time-lapse microscopy ([2]; Ca922, unbound TMR-GBP removed, imaged at 15 minutes interval for 16 hours, FIG. 4): most cells die in 8 hours | cell death by time-lapse microscopy [3]: most cells die in 8 hours | cell death by time-lapse microscopy [4]: still alive after long-term TMR-GBP treatment | increase of ROS compared with control cells ([5]; Ca922, 25 μM, 6 hours, DCFDA, after background subtraction, FIG. 9): 5 folds | ROS production with NAC treatment ([5]; NAC treatment in the presence of TMR-GBP): reversed by NAC treatment
